Test results taken from patent US20190105337A1, “METHODS OF TREATING BACTERIAL INFECTIONS” (priority 2015, published 2019).

How the values were obtained:
[1] = clinical; conditions: human, in vivo; for clearance: Plasma Clearance; for Vd: Vss
Experimental: All infusions were administered over 3 hours. Intensive plasma and urine PK sampling was obtained after dosing and assayed using validated HPLC/MS methods.

[2] = human, in vivo
Experimental: Forty one subjects were enrolled in 5 groups based on their degree of renal insufficiency. The five cohorts included: patients with normal renal function (CrCl≥90 ml/min), mild renal impairment (CrCl 60-89 ml/min), moderate renal impairment (CrCl 30-<60 ml/min), severe renal impairment (CrCl<30 ml/min, and patients with end stage renal disease requiring hemodialysis. Patients on renal replacement therapy other than standard hemodialysis (including continuous veno-venous hemofiltration, continuous veno-venous hemodialysis and continuous renal replacement therapy) were not studied.

[3] = Plasma protein binding; assay type: in vitro ADME
[4] = Example 6: noncompartmental plasma pharmacokinetics after third dose of the Combination (2 g meropenem/2 g Compound I q8h); conditions: for Vss / clearance / Cmax / Tmax: Compound I 2 g q8h; for AUC(0-t) / clearance / Cmax / Tmax / half-life: both, human, plasma, intravenous; for AUC(0-t): AUC0-8, Compound I 2 g q8h; for clearance: CL; for half-life: t1/2, Compound I 2 g q8h
Experimental: (§1) A total of twenty-five (n=25) male and female subjects who met the study entry criteria and completed all phases of the pharmacokinetic study were included in this pharmacokinetic analysis. […] Blood samples were collected to measure drug concentrations in plasma prior to (time 0), and at 1.5, 2.95, 3.083, 3.25, 3.5, 4, 6, and 8 hours after the start of a 3-hour intravenous infusion of the third combination dose.
(§2) (Reports MC14B-0013, MC14B-0015, MC14I-011, and MC14I-0012). The urea concentrations in plasma and BAL were performed with a microplate-based method with an 0-phthalaldehyde chromogenic solution at MicroConstants, Inc., San Diego, Calif.
Peak plasma concentration (Cmax) and time to Cmax (Tmax) were read from the observed plasma concentration-time profile after the start of the intravenous infusion of the third Combination dose. Area under the plasma concentration-time curve over 8 hours (AUC0-8) after the third dose was calculated with the linear-log trapezoidal rule (WinNonlin®, version 6.3, Pharsight Corporation, Cary, N.C.). The elimination rate constant (β) was determined by nonlinear least-squares regression. Elimination half-life (t½) was calculated by dividing β into the natural logarithm of two.

[5] = clinical; conditions: both, human, in vivo
Experimental: as §1
Urea has been commonly used as an endogenous marker to estimate the apparent volume of ELF. Blood samples to determine plasma urea concentrations were obtained just prior to scheduled bronchoscopy. Aliquots of BAL were obtained to determine urea concentrations in BAL and cell count with differential. The standardized bronchoscopy with BAL procedure for the collection of intrapulmonary samples has been previously described in the references listed below.
as §2
The calculations of ELF volume and drug concentrations in ELF and AM were performed with BAL supernatant and pulmonary (alveolar) cells (“cell pellet”) from aspirates recovered from the 2nd, 3rd, and 4th instillations (BAL2). The concentration of drug (ABXELF) in the epithelial lining fluid (ELF) was determined as follows:
[…]
VELF is derived from the following:
where UreaBAL is the concentration of urea in BAL fluid and UreaP is the concentration of urea in plasma.
The concentration of drug (ABXAM) in the alveolar cells (AC) was determined as follows:
Differential cell count was performed to determine the number of macrophages present. A mean macrophage cell volume of 2.42 μl/106 cells was used in the calculations for volume of alveolar cells in the pellet suspension.
The concentration ratios of ELF and AM to the simultaneous plasma concentrations were calculated for each subject and summarized for each group at each sampling time. […] The 8-hour sampling time was also used as a value at time zero for determining the area term of plasma, ELF, and AM. The AUC0-8 for each matrix was determined with the linear trapezoidal method. The ratio of AUC0-8 of ELF to plasma and AM to plasma were calculated.

[6] = AM concentration at time of bronchoscopy and BAL
[7] = ELF concentration at time of bronchoscopy and BAL
[8] = Plasma concentration at time of bronchoscopy and BAL
[9] = Ratio AM to Plasma (total plasma concentration)
[10] = Ratio ELF to Plasma (total plasma concentration)

In the case of `O=C(O)C[C@@H]1CC[C@H](NC(=O)Cc2cccs2)B(O)O1` [Compound I], the AUC(0-inf) ([1]; 250 mg) is reported as 17.5 µg·h/mL, the Cmax ([1]; 250 mg) is reported as 5200 ng/mL and the half-life ([1]; 250 mg) is reported as 1.18 h. For the same compound, the clearance ([1]; 250 mg) was 245 mL/min, the Vd ([1]; 250 mg) was 23.1 L and the AUC(0-inf) ([1]; 1000 mg) was 77.6 µg·h/mL. It also gave a Cmax ([1]; 1000 mg) of 22000 ng/mL, a half-life ([1]; 1000 mg) of 1.56 h and a clearance ([1]; 1000 mg) of 222 mL/min. For the same compound, the Vd ([1]; 1000 mg) was 21.4 L, the AUC(0-inf) ([1]; 1500 mg) was 124 µg·h/mL and the Cmax ([1]; 1500 mg) was 37200 ng/mL. It also gave a half-life ([1]; 1500 mg) of 1.21 h, a clearance ([1]; 1500 mg) of 206 mL/min and a Vd ([1]; 1500 mg) of 19.4 L. For the same compound, the non-renal clearance [2] was “no measurable non-renal clearance”, the fraction unbound [3] was 0.67 and the Vss ([4]; 1.5-hour BAL Sampling Group) was 18.6 ± 2.3 L. It also gave a Vss ([4]; 3.25-hour BAL Sampling Group) of 17.3 ± 2.3 L, a Vss ([4]; 4-hour BAL Sampling Group) of 16.9 ± 0.9 L and a Vss ([4]; 6-hour BAL Sampling Group) of 18.1 ± 3.9 L. The Vss ([4]; 8-hour BAL Sampling Group) was 17.0 ± 3.3 L, the Vss ([4]; All Subjects) was 17.6 ± 2.6 L and the AUC(0-t) ([4]; 1.5-hour BAL Sampling Group) was 184 ± 38.6 µg·h/mL. It also gave an AUC(0-t) ([4]; 3.25-hour BAL Sampling Group) of 210 ± 32.2 µg·h/mL, an AUC(0-t) ([4]; 4-hour BAL Sampling Group) of 214 ± 35.4 µg·h/mL and an AUC(0-t) ([4]; 6-hour BAL Sampling Group) of 216 ± 33.7 µg·h/mL. For the same compound, the AUC(0-t) ([4]; 8-hour BAL Sampling Group) was 198 ± 36.6 µg·h/mL, the AUC(0-t) ([4]; All Subjects) was 204 ± 34.6 µg·h/mL and the clearance ([4]; 1.5-hour BAL Sampling Group) was 188 mL/min. The clearance ([4]; 3.25-hour BAL Sampling Group) was 162 mL/min, the clearance ([4]; 4-hour BAL Sampling Group) was 158 mL/min and the clearance ([4]; 6-hour BAL Sampling Group) was 158 mL/min. For the same compound, the clearance ([4]; All Subjects) was 168 mL/min, the Cmax ([4]; 1.5-hour BAL Sampling Group) was 56100 ± 13000 ng/mL and the Cmax ([4]; 3.25-hour BAL Sampling Group) was 59700 ± 5800 ng/mL. The Cmax ([4]; 4-hour BAL Sampling Group) was 60100 ± 5700 ng/mL, the Cmax ([4]; 6-hour BAL Sampling Group) was 60900 ± 9700 ng/mL and the Cmax ([4]; 8-hour BAL Sampling Group) was 57900 ± 8800 ng/mL. The Cmax ([4]; All Subjects) was 59000 ± 8400 ng/mL, the Tmax ([4]; 1.5-hour BAL Sampling Group) was 2.95 ± 0.01 h and the Tmax ([4]; 3.25-hour BAL Sampling Group) was 3 ± 0.07 h. The Tmax ([4]; 4-hour BAL Sampling Group) was 2.98 ± 0.06 h, the Tmax ([4]; 6-hour BAL Sampling Group) was 3 ± 0.07 h and the Tmax ([4]; 8-hour BAL Sampling Group) was 2.98 ± 0.06 h. It also gave a Tmax ([4]; All Subjects) of 2.98 ± 0.06 h, a half-life ([4]; 1.5-hour BAL Sampling Group) of 1.18 ± 0.08 h and a half-life ([4]; 3.25-hour BAL Sampling Group) of 1.26 ± 0.23 h. For the same compound, the half-life ([4]; 4-hour BAL Sampling Group) was 1.34 ± 0.26 h, the half-life ([4]; 6-hour BAL Sampling Group) was 1.37 ± 0.27 h and the half-life ([4]; 8-hour BAL Sampling Group) was 1.18 ± 0.16 h. The half-life ([4]; All Subjects) was 1.27 ± 0.21 h, the concentration at 1.5 h [5, 6] was 2710 ± 1440 ng/mL and the concentration at 3.25 h [5, 6] was 8790 ± 9430 ng/mL. For the same compound, the concentration at 4 h [5, 6] was 5510 ± 3150 ng/mL, the concentration at 6 h [5, 6] was 27600 ± 39600 ng/mL and the concentration at 8 h [5, 6] was 4400 ± 4100 ng/mL. For the same compound, the AUC(0-t) ([5]; AUC0-8 based on mean ELF concentrations) was 105 µg·h/mL, the AUC(0-t) ([5]; AUC0-8 based on median ELF concentrations) was 96.7 µg·h/mL and the concentration at 1.5 h [5, 7] was 18600 ± 3800 ng/mL. The concentration at 3.25 h [5, 7] was 26100 ± 1100 ng/mL, the concentration at 4 h [5, 7] was 15700 ± 3400 ng/mL and the concentration at 6 h [5, 7] was 8030 ± 5800 ng/mL. The concentration at 8 h [5, 7] was 2610 ± 1350 ng/mL, the concentration at 1.5 h [5, 8] was 42100 ± 5000 ng/mL and the concentration at 3.25 h [5, 8] was 51100 ± 6800 ng/mL. For the same compound, the concentration at 4 h [5, 8] was 28200 ± 5300 ng/mL, the concentration at 6 h [5, 8] was 10800 ± 2800 ng/mL and the concentration at 8 h [5, 8] was 2740 ± 1120 ng/mL. The Kp at 1.5 h [5, 9] was 0.062 ± 0.029, the Kp at 3.25 h [5, 9] was 0.165 ± 0.163 and the Kp at 4 h [5, 9] was 0.191 ± 0.101. The Kp at 6 h [5, 9] was 2.58 ± 3.57, the Kp at 8 h [5, 9] was 1.6 ± 1.1 and the Kp at 1.5 h [5, 10] was 0.45 ± 0.123. The Kp at 3.25 h [5, 10] was 0.508 ± 0.096, the Kp at 4 h [5, 10] was 0.57 ± 0.159 and the Kp at 6 h [5, 10] was 0.705 ± 0.329. For the same compound, the Kp at 8 h [5, 10] was 1.01 ± 0.391, the Kp ([5]; intrapulmonary penetration based on AUC0-8 of ELF and total plasma concentrations) was about 0.53 and the Kp ([5]; intrapulmonary penetration, unbound plasma concentrations) was 0.79. The Kp at 6 h ([5]; mean ratio of AM to plasma concentration) was 2.58 ± 3.57, the Kp ([5]; mean ratios of AM to simultaneous plasma concentration (range)) was 0.062 to 2.58 and the Kp ([5]; mean ratios of ELF to simultaneous plasma concentrations (range)) was 0.45 to 1.01. It also gave a Kp ([5]; ratio of ELF to total plasma concentrations based on mean AUC0-8) of 0.53, a Kp ([5]; ratio of ELF to total plasma concentrations based on median AUC0-8) of 0.48 and a Kp ([5]; ratio of ELF to unbound plasma concentrations based on mean AUC0-8) of 0.79. The Kp ([5]; ratio of ELF to unbound plasma concentrations based on median AUC0-8) was 0.72.
